Test results taken from patent EP0017970A1, “Novel beta-lactam derivatives and process for production thereof” (SANRAKU-OCEAN CO., LTD., priority 1979, dated 1980).
Converted amounts (≈) assume the structure as drawn.

How the values were obtained:
Assay type in all cases: cell-based
S. aureus = test: Disc diffusion assay in nutrient broth containing 10% horse serum
From the text: The compounds of formula (I) provided by this invention show excellent antimicrobial activities in in vitro tests in horse serum as shown in Table IV below.

[1] = tested on: Bacillus subtilis ATCC 6633; test: MIC, agar dilution assay; conditions: 35°C for 20 hours
Experimental: (§1) The antibiotic activities shown in Tables 1-1 to 1-9 above were determined in the following manner. The minimum inhibitory concentrations of the compounds of formula (VI-b) in Tables I-1 to 1-8 and the known compounds in Table 1-9 on the various microorganisms shown in the above tables were measured by an agar dilution assay method using a brain heart infusion agar medium "Difco" (a product of Difco Laboratories Inc.). A sample of the test compound was dissolved in sterile distilled water and diluted to prepare a twofold dilution series of the compound solution. In a betri dish of 9 cm in diameter, 1 ml of the compound solution was added to 9 ml of a molten sterile heart infusion agar medium (Difco Laboratories Inc.) at. about 60°C to prepare an agar plate containing the compound. An overnight culture of each test organism indicated in the above table, which was prepared by stationary cultivation in trypto-soy broth (Eiken Chemi. Co., Ltd.) at 35°C for 18 to 20 hours, was diluted with the trypto-soy broth to give approximately 10^8 cells/ml and the diluted inoculum was inoculated in the agar plate. After cultivating the plate at 35°C for 20 hours, the growth of the organism was observed. The minimum concentration of the compound at which no growth of the microorganism was noted was determined, and defined as the minimum inhibitory concentration of the test compound.

Escherichia coli RGN 823 = test: MIC, agar dilution assay; conditions: RGN823, 20 h, 35°C for 20 hours, read-out: Antibiotic Activity minimum inhibitory concentration
Experimental: as §1

Enterobacter cloacae 45 = test: MIC, agar dilution assay; conditions: Enterobacter cloacae, 45, 20 h, 35°C for 20 hours, read-out: Antibiotic Activity minimum inhibitory concentration
Experimental: as §1

Escherichia coli K-12 = test: MIC, agar dilution assay; conditions: 35°C for 20 hours
Experimental: as §1

Proteus mirabilis P6 = test: MIC, agar dilution assay; conditions: P6, 20 h, 35°C for 20 hours, read-out: Antibiotic Activity minimum inhibitory concentration
Experimental: as §1

[2] = tested on: Citrobacter freundii GN 346; test: MIC, agar dilution assay; conditions: GN346, 20 h, 35°C for 20 hours, read-out: Antibiotic Activity minimum inhibitory concentration
Experimental: as §1

Alcaligenes faecalis A 1 = test: MIC, agar dilution assay; conditions: 35°C for 20 hours
Experimental: as §1

Enterobacter sp. E8 = test: MIC, agar dilution assay; conditions: 35°C for 20 hours
Experimental: as §1

[3] = tested on: Comamonas terrigena B-996; test: MIC, agar dilution assay; conditions: 35°C for 20 hours; for MIC: Comamonas terrigena, B996, 20 h, read-out: Antibiotic Activity minimum inhibitory concentration
Experimental: as §1

[4] = tested on: Staphylococcus aureus FDA 209P; test: MIC, agar dilution assay; conditions: 35°C for 20 hours
Experimental: as §1

[5] = tested on: Staphylococcus epidermidis; test: MIC, agar dilution assay; conditions: 35°C for 20 hours
Experimental: as §1

[6] = tested on: Staphylococcus aureus Smith; test: MIC, agar dilution assay; conditions: 35°C for 20 hours
Experimental: as §1

[7] = tested on: Klebsiella pneumoniae K-13; test: MIC, agar dilution assay; conditions: K13, 35°C for 20 hours, read-out: Antibiotic Activity minimum inhibitory concentration
Experimental: as §1

[8] = tested on: Staphylococcus aureus Russell; test: MIC, agar dilution assay; conditions: 35°C for 20 hours
Experimental: as §1

Sarcina lutea = test: MIC, agar dilution assay; conditions: 35°C for 20 hours
Experimental: as §1

[9] = tested on: Enterobacter aerogenes E19; test: MIC, agar dilution assay; conditions: 35°C for 20 hours
Experimental: as §1

Proteus vulgaris GN76 = test: MIC, agar dilution assay; conditions: 35°C for 20 hours, read-out: Antibiotic Activity minimum inhibitory concentration
Experimental: as §1

[10] = tested on: Pseudomonas aeruginosa NCTC10490; test: MIC, agar dilution assay; conditions: 35°C for 20 hours, read-out: Antibiotic Activity minimum inhibitory concentration
Experimental: as §1

Providencia sp. P8 = test: MIC, agar dilution assay; conditions: 35°C for 20 hours
Experimental: as §1

Serratia marcescens T55 = test: MIC, agar dilution assay; conditions: 35°C for 20 hours
Experimental: as §1

[11] = tested on: Pseudomonas aeruginosa IFO3445; test: MIC, agar dilution assay; conditions: 35°C for 20 hours, read-out: Antibiotic Activity minimum inhibitory concentration
Experimental: as §1

Proteus rettgeri P7 = test: MIC, agar dilution assay; conditions: 35°C for 20 hours
Experimental: as §1

Serratia marcescens S18 = test: MIC, agar dilution assay; conditions: 35°C for 20 hours
Experimental: as §1

Proteus sp. P22 = test: MIC, agar dilution assay; conditions: 35°C for 20 hours, read-out: Antibiotic Activity minimum inhibitory concentration
Experimental: as §1

[12] = Staphylococcus aureus, 20 h, read-out: Antibiotic Activity minimum inhibitory concentration

## CCC1C(=O)N2C(C(=O)OC)=C(Br)CC12 (stereo not drawn) [Table IV r4 R=H X=Br M=CH3, methyl 3-bromo-6-ethyl-7-oxo-l-azabicyclo[3.2.0]hept-2-ene-2-carboxylate]
S. aureus
  Inhibitory zone diameter: 29.7 mm

## CC(O)C1C(=O)N2C(C(=O)OCc3ccc([N+](=O)[O-])cc3)=C(Br)CC12 (stereo not shown) [Table IV r8 R=OH X=Br M=[drawing]]
S. aureus
  Inhibitory zone diameter: 31.2 mm

## CCC1C(=O)N2C(C(=O)OCc3ccc([N+](=O)[O-])cc3)=C(Br)CC12 (stereo not shown) [Table IV r6 R=H X=Br M=[drawing]]
S. aureus
  Inhibitory zone diameter: 28.6 mm

## CC(C)C1C(=O)N2C(C(=O)O)=C(Sc3ccccn3)CC12 (stereo not shown) [Table I-2 R1=-CH3]
[1]; Bacillus subtilis, ATCC6633, 20 h, read-out: Antibiotic Activity minimum inhibitory concentration
  MIC: 0.05 µg/mL (≈ 0.164 µM)
Escherichia coli RGN 823
  MIC: 12.5 µg/mL (≈ 41.1 µM)
Enterobacter cloacae 45
  MIC: > 100 µg/mL
Escherichia coli K-12; Escherichia coli, K12, 20 h, read-out: Antibiotic Activity minimum inhibitory concentration
  MIC: 12.5 µg/mL (≈ 41.1 µM)
Proteus mirabilis P6
  MIC: 6.25 µg/mL (≈ 20.5 µM)
[2]
  MIC: 50 µg/mL (≈ 164 µM)
Alcaligenes faecalis A 1; Alcaligenes faecalis, A1, 20 h, read-out: Antibiotic Activity minimum inhibitory concentration
  MIC: 0.2 µg/mL (≈ 0.657 µM)
Enterobacter sp. E8; Enterobacter, SP.E8, 20 h, read-out: Antibiotic Activity minimum inhibitory concentration
  MIC: 25 µg/mL (≈ 82.1 µM)
[3]
  MIC: 7 ng/mL (≈ 0.023 µM)
[4]; Staphylococcus aureus, FDA209P, 20 h, read-out: Antibiotic Activity minimum inhibitory concentration
  MIC: 7 ng/mL (≈ 0.023 µM)
[5]; 20 h, read-out: Antibiotic Activity minimum inhibitory concentration
  MIC: 0.05 µg/mL (≈ 0.164 µM)
[6]; [12]
  MIC: 0.013 µg/mL (≈ 0.0427 µM)
[7]
  MIC: 50 µg/mL (≈ 164 µM)
[8]; [12]
  MIC: 0.013 µg/mL (≈ 0.0427 µM)
Sarcina lutea; Micrococcus luteus, 20 h, read-out: Antibiotic Activity minimum inhibitory concentration
  MIC: 4 ng/mL (≈ 0.0131 µM)
[9]; Klebsiella aerogenes, E19, 20 h, read-out: Antibiotic Activity minimum inhibitory concentration
  MIC: 50 µg/mL (≈ 164 µM)

## COC(=O)C1=C(I)CC2C(C(C)O)C(=O)N12 (stereo not shown) [Table IV r11 R=OH X=I M=CH3]
S. aureus
  Inhibitory zone diameter: 31.0 mm

## CC(O)[C@H]1C(=O)N2C(C(=O)O)=C(Sc3ccncc3)C[C@H]12 (relative stereo) [Table I-1 R1=-OH*]
Proteus vulgaris GN76
  MIC: 50 µg/mL (≈ 163 µM)
[1]
  Antibiotic Activity minimum inhibitory concentration: <7 ng/mL
[10]
  MIC: 1.56 µg/mL (≈ 5.09 µM)
Providencia sp. P8
  Antibiotic Activity minimum inhibitory concentration: 0.20 µg/mL
Escherichia coli K-12
  Antibiotic Activity minimum inhibitory concentration: 0.05 µg/mL
Serratia marcescens T55
  Antibiotic Activity minimum inhibitory concentration: 25 µg/mL
Alcaligenes faecalis A 1
  Antibiotic Activity minimum inhibitory concentration: <7 ng/mL
Enterobacter sp. E8
  Antibiotic Activity minimum inhibitory concentration: 0.025 µg/mL
[11]
  MIC: 1.56 µg/mL (≈ 5.09 µM)
[3]
  Antibiotic Activity minimum inhibitory concentration: <7 ng/mL
  MIC: 13 ng/mL (≈ 0.0424 µM)
[4]
  Antibiotic Activity minimum inhibitory concentration: <7 ng/mL
[5]
  Antibiotic Activity minimum inhibitory concentration: <7 ng/mL
[6]
  Antibiotic Activity minimum inhibitory concentration: <7 ng/mL
[7]
  MIC: 25 µg/mL (≈ 81.6 µM)
[8]
  Antibiotic Activity minimum inhibitory concentration: <7 ng/mL
Sarcina lutea
  Antibiotic Activity minimum inhibitory concentration: <7 ng/mL
Proteus rettgeri P7
  Antibiotic Activity minimum inhibitory concentration: 0.78 µg/mL
Serratia marcescens S18
  Antibiotic Activity minimum inhibitory concentration: 50 µg/mL
Serratia marcescens S18; Serratia marcescens, S18, 20 h, read-out: Antibiotic Activity minimum inhibitory concentration
  MIC: 100 µg/mL (≈ 326 µM)
[9]
  Antibiotic Activity minimum inhibitory concentration: 1.56 µg/mL
Proteus sp. P22
  MIC: 50 µg/mL (≈ 163 µM)

## CC(C)C1C(=O)N2C(C(=O)OCc3ccc([N+](=O)[O-])cc3)=C(Br)CC12 (stereo not shown) [Table IV r7 R=CH3 X=Br M=[drawing]]
S. aureus
  Inhibitory zone diameter: 26.8 mm
